Laboratory results as given in patent publication US20040229268A1, “Method and kit for identifying antibiotic-resistant microorganisms” (priority 2003, published 2004).
Converted amounts (≈) assume the structure as drawn.

Experiments:
Staphylococcus isolates = assay: Oxacillin Minimum Inhibitory Concentration (Ox MIC); assay type: cell-based, S. aureus and other Staphylococcus spp.
[1] = tested on: mecA gene; Staphylococcus spp. and S. aureus ribosomal nucleic acids; assay: HPA probe panel on clinical and ATCC isolates (Examples 8-9); assay type: binding
Description: Oxacillin MIC results were provided by an outside laboratory. The GP Probe results were determined as described in Example 8.

## Cc1onc(-c2ccccc2)c1C(=O)N[C@@H]1C(=O)N2[C@@H]1SC(C)(C)[C@@H]2C(=O)O [Oxacillin]
Staphylococcus isolates; Staphylococcus, Pos Control GP1217
  MIC: > 16 µg/mL
Staphylococcus isolates; Staphylococcus, Table 14, S. hemoliticus, 1 isolate
  MIC: ≤ 0.25 µg/mL
Staphylococcus isolates; Staphylococcus, Table 14, S. hyicus-hyicus, 1 isolate
  MIC: ≤ 0.25 µg/mL
Staphylococcus isolates; Staphylococcus, Table 14, S. intermedius, 1 isolate
  MIC: ≤ 0.25 µg/mL
Staphylococcus isolates; Staphylococcus, clinical isolate GP21, determined at the collection site
  MIC: < 0.25 µg/mL
Staphylococcus isolates; Staphylococcus, clinical isolate GP22, determined at the collection site
  MIC: 0.5 µg/mL (≈ 1.25 µM)
Staphylococcus isolates; Staphylococcus, clinical isolate GP23, determined at the collection site
  MIC: < 0.25 µg/mL
Staphylococcus isolates; Staphylococcus, clinical isolate GP24, determined at the collection site
  MIC: > 16 µg/mL
Staphylococcus isolates; Staphylococcus, clinical isolate GP25, determined at the collection site
  MIC: > 16 µg/mL
Staphylococcus isolates; Staphylococcus, clinical isolate GP26, determined at the collection site
  MIC: < 0.25 µg/mL
Staphylococcus isolates; Staphylococcus, clinical isolate GP27, determined at the collection site
  MIC: < 0.25 µg/mL
Staphylococcus isolates; Staphylococcus, clinical isolate GP28, determined at the collection site
  MIC: 1 µg/mL (≈ 2.49 µM)
Staphylococcus isolates; Staphylococcus, clinical isolate GP29, determined at the collection site
  MIC: > 16 µg/mL
Staphylococcus isolates; Staphylococcus, clinical isolate GP30, determined at the collection site
  MIC: < 0.25 µg/mL
Staphylococcus isolates; Staphylococcus, clinical isolate GP31, determined at the collection site
  MIC: > 16 µg/mL
Staphylococcus isolates; Staphylococcus, clinical isolate GP32, determined at the collection site
  MIC: < 0.25 µg/mL
Staphylococcus isolates; Staphylococcus, clinical isolate GP33, determined at the collection site
  MIC: > 16 µg/mL
Staphylococcus isolates; Staphylococcus, clinical isolate GP34, determined at the collection site
  MIC: < 0.25 µg/mL
Staphylococcus isolates; Staphylococcus, clinical isolate GP35, determined at the collection site
  MIC: > 16 µg/mL
Staphylococcus isolates; Staphylococcus, clinical isolate GP36, determined at the collection site
  MIC: < 0.25 µg/mL
Staphylococcus isolates; Staphylococcus, clinical isolate GP37, determined at the collection site
  MIC: > 16 µg/mL
Staphylococcus isolates; Staphylococcus, clinical isolate GP39, determined at the collection site
  MIC: < 0.25 µg/mL
Staphylococcus isolates; Staphylococcus, clinical isolate GP40, determined at the collection site
  MIC: < 0.25 µg/mL
Staphylococcus isolates; Table 14, ATCC MRSA, first isolate
  MIC: 8 µg/mL (≈ 19.9 µM)
Staphylococcus isolates; Table 14, ATCC MRSA, second isolate
  MIC: 16 µg/mL (≈ 39.9 µM)
Staphylococcus isolates; Table 14, ATCC MSSA, 1 isolate
  MIC: 1 µg/mL (≈ 2.49 µM)
Staphylococcus isolates; Table 14, ATCC MSSA, group of 4 isolates
  MIC: 0.5 µg/mL (≈ 1.25 µM)
Staphylococcus isolates; Table 14, ATCC MSSA, group of 6 isolates
  MIC: ≤ 0.25 µg/mL
Staphylococcus isolates; Table 14, Clinical MRSA, group of 8 isolates
  MIC: 16 µg/mL (≈ 39.9 µM)
Staphylococcus isolates; Table 14, Clinical MRSA, group of 13 isolates
  MIC: 8 µg/mL (≈ 19.9 µM)
Staphylococcus isolates; Table 14, Clinical MRSA, group of 14 isolates, provided by an outside laboratory
  MIC: 4 µg/mL (≈ 9.96 µM)
Staphylococcus isolates; Table 14, Clinical MRSA, group of 107 isolates
  MIC: > 16 µg/mL
Staphylococcus isolates; Table 14, Clinical MSSA, group of 8 isolates
  MIC: 2 µg/mL (≈ 4.98 µM)
Staphylococcus isolates; Table 14, Clinical MSSA, group of 13 isolates
  MIC: 1 µg/mL (≈ 2.49 µM)
Staphylococcus isolates; Table 14, Clinical MSSA, group of 28 isolates
  MIC: 0.5 µg/mL (≈ 1.25 µM)
Staphylococcus isolates; Table 14, Clinical MSSA, group of 99 isolates
  MIC: ≤ 0.25 µg/mL
Staphylococcus isolates; Table 14, S. epidermidis, 1 isolate (mecA(+)), first
  MIC: 4 µg/mL (≈ 9.96 µM)
Staphylococcus isolates; Table 14, S. epidermidis, 1 isolate (mecA(+)), second
  MIC: > 16 µg/mL
Staphylococcus isolates; Table 14, S. epidermidis, group of 2 isolates (mecA(−))
  MIC: ≤ 0.25 µg/mL
Staphylococcus isolates; Table 14, S. hominis, 1 isolate
  MIC: ≤ 0.25 µg/mL
Staphylococcus isolates; Table 14, S. saprophyticus, 1 isolate
  MIC: 0.5 µg/mL (≈ 1.25 µM)
Staphylococcus isolates; Table 14, S. simulans, 1 isolate
  MIC: ≤ 0.25 µg/mL
Staphylococcus isolates; Table 14, S. warneri, 1 isolate
  MIC: ≤ 0.25 µg/mL
Staphylococcus isolates; specimen 10 (mecA PCR Neg)
  Ox MIC: 8 µg/mL
Staphylococcus isolates; specimen 101 (mecA PCR Neg)
  Ox MIC: 4 µg/mL
Staphylococcus isolates; specimen 102 (mecA PCR Pos)
  Ox MIC: 4 µg/mL
Staphylococcus isolates; specimen 103 (mecA PCR Neg)
  Ox MIC: 4 µg/mL
Staphylococcus isolates; specimen 104 (mecA PCR Neg)
  Ox MIC: 2 µg/mL
Staphylococcus isolates; specimen 105 (mecA PCR Neg)
  Ox MIC: 2 µg/mL
Staphylococcus isolates; specimen 106 (mecA PCR Neg)
  Ox MIC: 2 µg/mL
Staphylococcus isolates; specimen 139 (mecA PCR Pos)
  Ox MIC: 4 µg/mL
Staphylococcus isolates; specimen 140 (mecA PCR Pos)
  Ox MIC: 16 µg/mL
Staphylococcus isolates; specimen 142 (mecA PCR Pos)
  Ox MIC: 4 µg/mL
Staphylococcus isolates; specimen 145 (mecA PCR Neg)
  Ox MIC: 4 µg/mL
Staphylococcus isolates; specimen 148 (mecA PCR Pos)
  Ox MIC: 4 µg/mL
Staphylococcus isolates; specimen 155 (mecA PCR Neg)
  Ox MIC: 4 µg/mL
Staphylococcus isolates; specimen 164 (mecA PCR Neg)
  Ox MIC: 2 µg/mL
Staphylococcus isolates; specimen 178 (mecA PCR Pos)
  Ox MIC: 2 µg/mL
Staphylococcus isolates; specimen 188 (mecA PCR Pos)
  Ox MIC: 2 µg/mL
Staphylococcus isolates; specimen 270 (mecA PCR Pos)
  Ox MIC: <0.25 µg/mL
Staphylococcus isolates; specimen #99 (mecA PCR Pos), reported by outside laboratory
  Ox MIC: 4 µg/mL
Staphylococcus isolates; specimen #100 (mecA PCR Neg), reported by outside laboratory
  Ox MIC: 4 µg/mL

## CCACTCAAGAGAGACAACATTTTCGACTAC (AE label linker 22/23, with helper oligonucleotides, chemistry not fully specified; listed as Staphylococcus aureus) [S. aureus]
[1]; ATCC MRSA, 1 isolate, Oxacillin MIC 16 μg/ml
  HPA Results (# positive for indicated probes): 1
[1]; ATCC MSSA, 1 isolate, Oxacillin MIC 1 μg/ml
  HPA Results (# positive for indicated probes): 1
[1]; ATCC MSSA, 4 isolates, Oxacillin MIC 0.5 μg/ml
  HPA Results (# positive for indicated probes): 4
[1]; ATCC MSSA, 6 isolates, Oxacillin MIC ≦0.25 μg/ml
  HPA Results (# positive for indicated probes): 6
[1]; Clinical MRSA, 8 isolates, Oxacillin MIC 16 μg/ml
  HPA Results (# positive for indicated probes): 8
[1]; Clinical MRSA, 107 isolates, Oxacillin MIC >16 μg/ml
  HPA Results (# positive for indicated probes): 107
[1]; Clinical MSSA, 28 isolates, Oxacillin MIC 0.5 μg/ml
  HPA Results (# positive for indicated probes): 28
[1]; Clinical MSSA, 99 isolates, Oxacillin MIC ≦0.25 μg/ml
  HPA Results (# positive for indicated probes): 99
[1]; GP21 (S. aureus, mecA(−), MSSA)
  HPA Results (RLU): 351348 RLU
[1]; GP22 (CoNS, mecA(+))
  HPA Results (RLU): 7637 RLU
[1]; GP23 (S. aureus, mecA(−))
  HPA Results (RLU): 280428 RLU
[1]; GP24 (S. aureus, mecA(+))
  HPA Results (RLU): 274112 RLU
[1]; GP25 (S. aureus, mecA(+))
  HPA Results (RLU): 408938 RLU
[1]; GP26 (S. aureus, mecA(−))
  HPA Results (RLU): 241597 RLU
[1]; GP27 (CoNS, mecA(−))
  HPA Results (RLU): 7057 RLU
[1]; GP28 (S. aureus, mecA(−))
  HPA Results (RLU): 195759 RLU
[1]; GP29 (S. aureus, mecA(+))
  HPA Results (RLU): 416372 RLU
[1]; GP30 (S. aureus, mecA(−))
  HPA Results (RLU): 399498 RLU
[1]; GP31 (S. aureus, mecA(+))
  HPA Results (RLU): 332750 RLU
[1]; GP32 (S. aureus, mecA(−))
  HPA Results (RLU): 414709 RLU
[1]; GP33 (S. aureus, mecA(+))
  HPA Results (RLU): 154183 RLU
[1]; GP34 (S. aureus, mecA(−))
  HPA Results (RLU): 497890 RLU
[1]; GP35 (S. aureus, mecA(+))
  HPA Results (RLU): 484580 RLU
[1]; GP36 (S. aureus, mecA(−))
  HPA Results (RLU): 356243 RLU
[1]; GP37 (S. aureus, mecA(+))
  HPA Results (RLU): 373448 RLU
[1]; GP38 (S. aureus, mecA(+))
  HPA Results (RLU): 367728 RLU
[1]; GP39 (S. aureus, mecA(−))
  HPA Results (RLU): 268665 RLU
[1]; GP40 (S. aureus, mecA(−))
  HPA Results (RLU): 283200 RLU
[1]; Neg Control (Hybridization Buffer)
  HPA Results (RLU): 3472 RLU
[1]; Pos Control GP1217 (S. aureus, mecA(+), MRSA)
  HPA Results (RLU): 162795 RLU
[1]; S. epidermidis, 1 isolate, Oxacillin MIC >16 μg/ml
  HPA Results (# positive for indicated probes): 0
[1]; S. epidermidis, 2 isolates, Oxacillin MIC ≦0.25 μg/ml
  HPA Results (# positive for indicated probes): 0
[1]; S. hemoliticus, 1 isolate, Oxacillin MIC ≦0.25 μg/ml
  HPA Results (# positive for indicated probes): 0
[1]; S. hominis, 1 isolate, Oxacillin MIC ≦0.25 μg/ml
  HPA Results (# positive for indicated probes): 0
[1]; S. hyicus-hyicus, 1 isolate, Oxacillin MIC ≦0.25 μg/ml
  HPA Results (# positive for indicated probes): 0
[1]; S. intermedius, 1 isolate, Oxacillin MIC ≦0.25 μg/ml
  HPA Results (# positive for indicated probes): 0
[1]; S. saprophyticus, 1 isolate, Oxacillin MIC 0.5 μg/ml
  HPA Results (# positive for indicated probes): 0
[1]; S. simulans, 1 isolate, Oxacillin MIC ≦0.25 μg/ml
  HPA Results (# positive for indicated probes): 0
[1]; S. warneri, 1 isolate, Oxacillin MIC ≦0.25 μg/ml
  HPA Results (# positive for indicated probes): 0
